Experimental findings from US9988381B2, “Five-member-heterocycle fused pyridine compounds, method of producing the same, and use thereof” (SHANGHAI INSTITUTE OF MATERIA MEDICA, CHINESE ACADEMY OF …, priority 2013, dated 2018) are described below.

Assay [1] concerns the target T1, c-Met kinase domain recombinant protein (Homo sapiens, UniProt P08581).
T1 construct: 50 μL diluted solution of c-Met kinase domain recombinant protein in reaction buffer was added to initiate the reaction
The assay can be described thus: biochemical. As to conditions: for inhibition at 0.1 µM: read-out: Average inhibition rate at 0.1 μM (%); for inhibition at 1 µM: read-out: Average inhibition rate at 1 μM (%); for inhibition at 10 µM: read-out: Average inhibition rate at 10 μM (%). The essentials:
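IC50 came from a four-parameter fit of inhibition rates measured by anti-phosphotyrosine (PY99/HRP) ELISA at 490 nm. The reaction ran 1 hour at 37° C with 5 μM ATP, c-Met kinase domain protein and Poly(Glu,Tyr)4:1-coated wells, in HEPES pH 7.4 buffer containing MgCl2, MnCl2, Na3VO4 and DTT.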

Assay [2] concerns the target T1, c-Met kinase domain recombinant protein. Briefly: biochemical. The conditions noted are these: read-out: Inhibition rate at 10 μM (%). The essentials:
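Recombinant c-Met kinase domain phosphorylated immobilised Poly(Glu,Tyr)4:1 for 1 h at 37 °C in 50 mM HEPES pH 7.4, 50 mM MgCl2, 0.5 mM MnCl2, 0.2 mM Na3VO4, 1 mM DTT with ATP. Product measured by anti-phosphotyrosine PY99 ELISA (HRP, 490 nm), giving percent inhibition; ATP-free wells served as control.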

Like-named read-outs stand apart in the source and are kept apart here.

T1 sequence (P08581 1078-1345 limits assumed): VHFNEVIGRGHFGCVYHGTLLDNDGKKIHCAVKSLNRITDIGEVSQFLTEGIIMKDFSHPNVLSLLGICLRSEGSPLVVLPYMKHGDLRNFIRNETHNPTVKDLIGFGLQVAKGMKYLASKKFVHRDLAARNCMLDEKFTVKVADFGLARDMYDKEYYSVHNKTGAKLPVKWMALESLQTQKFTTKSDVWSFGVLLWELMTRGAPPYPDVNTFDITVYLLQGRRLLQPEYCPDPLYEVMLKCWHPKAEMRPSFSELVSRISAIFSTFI

Usually inhibition stands for the percentage by which the read-out fell short of the control. Consider `Cn1cc(-c2cnc3cnn(S(=O)(=O)c4cnc5ccc(-c6ccc(N7CCOCC7)cc6)cn45)c3c2)cn1` [Example 75, 1-{[6-(4-morpholinylphenyl)-imidazo[1,2-a]pyridine]-3-sulfonyl}-6-[(1-methyl)-4-pyrazolyl]-1-H-pyrazolo[4,3-b]pyridine], for which, in assay [1], the inhibition at 0.1 µM came to 74.6%, the inhibition at 1 µM stood at 75.6% and the inhibition at 10 µM worked out at 83.1%. Further, the inhibition at 10 µM in assay [2] was > 77.3%.
With `Cn1cc(-c2cnc3cnn(S(=O)(=O)c4cnc5ccc(-c6ccc(C(F)(F)F)cc6)cn45)c3c2)cn1` [Example 77, 1-{[6-(4-trifluoromethylphenyl)-imidazo[1,2-a]pyridine]-3-sulfonyl}-6-[(1-methyl)-4-pyrazolyl]-1-H-pyrazolo[4,3-b]pyridine], in assay [1], the inhibition at 0.1 µM is 55.8%, the inhibition at 1 µM worked out at 64.8% and the inhibition at 10 µM turned out to be 85.5%. Also, the inhibition at 10 µM in assay [2] was > 76.9%.
The corresponding values for `Cc1ccc(-c2ccc3ncc(S(=O)(=O)n4ncc5ncc(-c6cnn(C)c6)cc54)n3c2)cc1F` [Example 78, 1-{[6-(3-fluoro-4-methylphenyl)-imidazo[1,2-a]pyridine]-3-sulfonyl}-6-[(1-methyl)-4-pyrazolyl]-1-H-pyrazolo[4,3-b]pyridine] are 64.5%, 69.3%, 89.3% and > 12.1%.
As to `CC(C)Oc1ccc(-c2ccc3ncc(S(=O)(=O)n4ncc5ncc(-c6cnn(C)c6)cc54)n3c2)cc1` [Example 79], in assay [1], the inhibition at 1 µM is 30.5% and the inhibition at 10 µM is 77.4%. Further, the inhibition at 10 µM in assay [2] was > 83.1%.
With `CN1CCN(C(=O)c2ccc(-c3ccc4ncc(S(=O)(=O)n5ncc6ncc(-c7cnn(C)c7)cc65)n4c3)cc2)CC1` [Example 80, 1-{[6-[4-(4-methylpiperazine-1-carbonyl)phenyl]-imidazo[1,2-a]pyridine]-3-sulfonyl}-6-[(1-methyl)-4-pyrazolyl]-1-H-pyrazolo[4,3-b]pyridine], in assay [1], the inhibition at 1 µM amounted to 47.5% and the inhibition at 10 µM came to 80.6%. Besides, in assay [2], the inhibition at 10 µM was > 75.3%.
Turning to `Cn1cc(-c2cnc3cnn(S(=O)(=O)c4cnc5ccc(-c6cnn(C7CCNCC7)c6)cn45)c3c2)cn1` [Example 82, 1-{[6-([1-(4-piperidinyl)]-4-pyrazolyl)-imidazo[1,2-a]pyridine]-3-sulfonyl}-6-[(1-methyl)-4-pyrazolyl]-1-H-pyrazolo[4,3-b]pyridine chloride], in assay [1], the inhibition at 0.1 µM was 54.4%, the inhibition at 1 µM worked out at 63.8% and the inhibition at 10 µM worked out at 77.7%. Besides, in assay [2], the inhibition at 10 µM is > 78.5%.
On to `Cn1cc(-c2cnc3cnn(S(=O)(=O)c4cnc5ccc(-c6cccc(C(F)(F)F)c6)cn45)c3c2)cn1` [Example 83, 1-{[6-(3-trifluoromethylphenyl)-imidazo[1,2-a]pyridine]-3-sulfonyl}-6-[(1-methyl)-4-pyrazolyl]-1-H-pyrazolo[4,3-b]pyridine], for which, in assay [1], the inhibition at 1 µM came to 44.4% and the inhibition at 10 µM is 77.7%. Also, in assay [2], the inhibition at 10 µM was > 79.8%.
The corresponding values for `Cn1cc(-c2cnc3cnn(S(=O)(=O)c4cnc5ccc(-c6ccccc6C(F)(F)F)cn45)c3c2)cn1` [Example 84, 1-{[6-(2-trifluoromethylphenyl)-imidazo[1,2-a]pyridine]-3-sulfonyl}-6-[(1-methyl)-4-pyrazolyl]-1-H-pyrazolo[4,3-b]pyridine] are 41.2%, 73.5% and > 71.5%.
As to `CN(C)c1ccc(-c2ccc3ncc(S(=O)(=O)n4ncc5ncc(-c6cnn(C)c6)cc54)n3c2)cc1` [Example 85, 1-{[6-(4-dimethylaminophenyl)-imidazo[1,2-a]pyridine]-3-sulfonyl}-6-[(1-methyl)-4-pyrazolyl]-1-H-pyrazolo[4,3-b]pyridine], in assay [1], the inhibition at 1 µM came out at 30.1% and the inhibition at 10 µM was found to be 79.4%. For the same compound, the inhibition at 10 µM in assay [2] was > 71.2%.
Take `Cn1cc(-c2cnc3cnn(S(=O)(=O)c4cnc5ccc(-c6cccc(F)c6)cn45)c3c2)cn1` [Example 86, 1-{[6-(3-fluorophenyl)-imidazo[1,2-a]pyridine]-3-sulfonyl}-6-[(1-methyl)-4-pyrazolyl]-1-H-pyrazolo[4,3-b]pyridine]: in assay [1], the inhibition at 0.1 µM was 45%, the inhibition at 1 µM worked out at 66.6% and the inhibition at 10 µM worked out at 77.8%. Further, the inhibition at 10 µM in assay [2] is > 67.9%.
For `Cn1cc(-c2cnc3cnn(S(=O)(=O)c4cnc5ccc(-c6ccc(F)cc6F)cn45)c3c2)cn1` [Example 87, 1-{[6-(2,4-difluorophenyl)-imidazo[1,2-a]pyridine]-3-sulfonyl}-6-[(1-methyl)-4-pyrazolyl]-1-H-pyrazolo[4,3-b]pyridine], in that order: 33.8%, 72.7%, 72.5% and > 76.8%.
In the case of `Cn1cc(-c2cnc3cnn(S(=O)(=O)c4cnc5ccc(-c6cc(F)c(F)c(F)c6)cn45)c3c2)cn1` [Example 88, 1-{[6-(3,4,5-trifluorophenyl)-imidazo[1,2-a]pyridine]-3-sulfonyl}-6-[(1-methyl)-4-pyrazolyl]-1-H-pyrazolo[4,3-b]pyridine], in assay [1], the inhibition at 0.1 µM worked out at 1.1%, the inhibition at 1 µM is 59.4% and the inhibition at 10 µM came to 64.5%. For the same compound, the inhibition at 10 µM in assay [2] was > 70.2%.
Turning to `COc1ccc(-c2ccc3ncc(S(=O)(=O)n4ncc5ncc(-c6cnn(C)c6)cc54)n3c2)cc1` [Example 89, 1-{[6-(4-methoxyphenyl)-imidazo[1,2-a]pyridine]-3-sulfonyl}-6-[(1-methyl)-4-pyrazolyl]-1-H-pyrazolo[4,3-b]pyridine], in assay [1], the inhibition at 0.1 µM was determined as 45.3%, the inhibition at 1 µM is 79.9% and the inhibition at 10 µM was determined as 83.4%. Also, in assay [2], the inhibition at 10 µM is > 71.7%.
The corresponding values for `Cn1cc(-c2cnc3cnn(S(=O)(=O)c4cnc5ccc(-c6ccc(C#N)cc6)cn45)c3c2)cn1` [Example 92, 1-{[6-(4-cyanophenyl)-imidazo[1,2-a]pyridine]-3-sulfonyl}-6-[(1-methyl)-4-pyrazolyl]-1-H-pyrazolo[4,3-b]pyridine] are 82.8%, 79.1%, 78.9% and > 71.9%.
For `Cn1cc(-c2cnc3cnn(S(=O)(=O)c4cnc5ccc(-c6ccc7c(c6)OCCO7)cn45)c3c2)cn1` [Example 93, 1-{[6-[6-(1,4-benzodioxanyl)]-imidazo[1,2-a]pyridine]-3-sulfonyl}-6-[(1-methyl)-4-pyrazolyl]-1-H-pyrazolo[4,3-b]pyridine], in that order: 76.1%, 76.8%, 77.9% and > 64.5%.
As to `Cn1cc(-c2cnc3cnn(S(=O)(=O)c4cnc5ccc(-c6ccc(Cl)cc6)cn45)c3c2)cn1` [Example 94, 1-{[6-(4-chlorophenyl)-imidazo[1,2-a]pyridine]-3-sulfonyl}-6-[(1-methyl)-4-pyrazolyl]-1-H-pyrazolo[4,3-b]pyridine], in assay [1], the inhibition at 0.1 µM turned out to be 72.1%, the inhibition at 1 µM was 55.7% and the inhibition at 10 µM is 83.9%. In assay [2], the inhibition at 10 µM was > 74.3%.
For orientation: IC50 means the concentration that gives 50% inhibition. For the compound `COc1ccc(-c2ccc3ncc(S(=O)(=O)n4ncc5ncc(-c6cnn(C)c6)cc54)n3c2)cc1OC` [Example 96, 1-{[6-(3,4-dimethoxyphenyl)-imidazo[1,2-a]pyridine]-3-sulfonyl}-6-[(1-methyl)-4-pyrazolyl]-1-H-pyrazolo[4,3-b]pyridine], in assay [1], the IC50 worked out at 700 ± 100 pM, the inhibition at 0.1 µM is 56.6%, the inhibition at 1 µM stood at 61.5% and the inhibition at 10 µM worked out at 68.3%. The inhibition at 10 µM in assay [2] was > 71.8%.
For `Cn1cc(-c2cnc3cnn(S(=O)(=O)c4cnc5ccc(-c6ccc7c(c6)OCO7)cn45)c3c2)cn1` [Example 98, 1-{[6-[5-(1,2-methylenedioxyphenyl)]-imidazo[1,2-a]pyridine]-3-sulfonyl}-6-[(1-methyl)-4-pyrazolyl]-1-H-pyrazolo[4,3-b]pyridine], in that order: 1400 ± 100 pM, 50.6%, 66.8%, 74.3% and > 77.9%.
Turning to `CNC(=O)c1ccc(-c2ccc3ncc(S(=O)(=O)n4ncc5ncc(-c6cnn(C)c6)cc54)n3c2)cc1F` [Example 101, 1-{(6-(3-fluoro-4-methylaminocarbonylphenyl)-imidazo[1,2-a]pyridine)-3-sulfonyl}-6-[(1-methyl)-4-pyrazolyl]-1-H-pyrazolo[4,3-b]pyridine], in assay [1], the half-inhibitory concentration (IC50) amounted to 300 ± 100 pM, the inhibition at 0.1 µM amounted to 100% and the inhibition at 1 µM was found to be 100%. Besides, the inhibition at 10 µM in assay [2] was > 64.5%.
